Assay results from patent US9765092B2, “Tricyclic piperidine compounds” (ACTELION PHARMACEUTICALS LTD, priority 2013, dated 2017).

How the values were obtained:
[1] = system: 5HT; conditions: mice; cited from earlier work
[2] = system: 5HT; conditions: 200 mg/kg i.p. qid for 3 days; cited from earlier work
[3] = system: cholangiocarcinoma; conditions: xenograft model of cholangiocarcinoma; cited from earlier work
[4] = system: 5HT; conditions: in vivo; cited from earlier work
[5] = system: 5HT / 5HIAA; conditions: phase IIA study, qid; cited from earlier work
[6] = target: human TPH1 (Homo sapiens (Human), UniProt P17752); experiment: Biochemical in vitro assay using fluorescence readout (TPH1 inhibition)
[7] = human TPH1, fluorescence readout

human TPH1, sequence (P17752 whole entry): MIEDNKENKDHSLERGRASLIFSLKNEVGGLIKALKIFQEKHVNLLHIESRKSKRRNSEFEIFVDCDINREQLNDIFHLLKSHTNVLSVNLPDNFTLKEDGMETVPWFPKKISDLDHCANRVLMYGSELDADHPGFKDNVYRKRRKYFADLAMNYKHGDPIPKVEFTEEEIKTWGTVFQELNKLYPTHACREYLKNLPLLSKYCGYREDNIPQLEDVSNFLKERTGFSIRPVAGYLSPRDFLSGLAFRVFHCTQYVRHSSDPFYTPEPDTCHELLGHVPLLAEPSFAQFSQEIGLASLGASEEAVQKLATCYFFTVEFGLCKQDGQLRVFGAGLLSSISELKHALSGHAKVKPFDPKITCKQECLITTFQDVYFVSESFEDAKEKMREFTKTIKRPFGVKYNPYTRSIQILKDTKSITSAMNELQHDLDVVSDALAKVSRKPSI

Nc1nc(OC(c2ccc(-c3cccc(F)c3)cc2)C(F)(F)F)cc(-c2ccc(C[C@H](N)C(=O)O)cc2)n1 (stereo partly drawn) [LP533401]
brain 5HT concentrations [1]: without effecting brain concentrations
gut 5HT [1]: lower gut 5HT

N[C@@H](Cc1ccc(Cl)cc1)C(=O)O (racemic) [PCA, p-chlorophenylalanine]
5HT in the brain [2]: ~20 % original
5HT in the gut [2]: ~50 % original
tumor volume [3]: dramatic reduction in tumor volume

COc1cccc(-c2ccc([C@@H](Oc3cc(-c4ccc(C[C@H](N)C(=O)O)cc4)nc(N)n3)C(F)(F)F)cc2)c1 [LX1031, (S)-2-Amino-3-(4-{2-amino-6-[(R)-2,2,2-trifluoro-1-(3′-methoxy-biphenyl-4-yl)-ethoxy]-pyrimidin-4-yl}-phenyl)-propionic acid]
5HT in the colon [4]: only a minor reduction
5HT in the jejunum [4]: lowers 5HT in the jejunum
brain 5HT [4]: no effect on brain 5HT
blood 5HT [5]: did not affect blood 5HT
urinary 5HIAA reduction [5]: up to 30%

Cc1nn2c3c(nc2s1)CCN(C(=O)COc1ccc(N(C)S(C)(=O)=O)nc1Cl)C3c1ccc(Cl)cc1F (stereo not drawn) [Example 1.4.48, N-(6-chloro-5-(2-(5-(4-chloro-2-fluorophenyl)-2-methyl-7,8-dihydro-[1,3,4]thiadiazolo[2′,3′:2,3]imidazo[4,5-c]pyridin-6(5H)-yl)-2-oxoethoxy)pyridin-2-yl)-N-methylmethanesulfonamide]
IC50 [6, 7]: 10 nM

Cc1nn2c3c(nc2s1)CCN(C(=O)COc1ccc(NS(C)(=O)=O)nc1Cl)C3c1cnc(C(=O)N(C)C)s1 (stereo not drawn) [Example 1.34.3, 5-(6-(2-((2-chloro-6-(methylsulfonamido)pyridin-3-yl)oxy)acetyl)-2-methyl-5,6,7,8-tetrahydro-[1,3,4]thiadiazolo [2′,3′:2,3]imidazo[4,5-c]pyridin-5-yl)-N,N-dimethylthiazole-2-carboxamide]
IC50 [6, 7]: 104 nM

CNC(=O)c1ccc(C2c3c(nc4sc(C)nn34)CCN2C(=O)COc2ccc(N3CCOCC3)nc2Cl)o1 (stereo not drawn) [Example 1.42.2, 5-(6-(2-((2-chloro-6-morpholinopyridin-3-yl)oxy)acetyl)-2-methyl-5,6,7,8-tetrahydro-[1,3,4]thiadiazolo[2′,3′:2,3]imidazo[4,5-c]pyridin-5-yl)-N-methylfuran-2-carboxamide]
IC50 [6, 7]: 11 nM

Cc1nn2c3c(nc2s1)CCN(C(=O)COc1ccc(NS(C)(=O)=O)nc1Cl)C3c1sc(C(=O)N(C)C)cc1F (stereo not drawn) [Example 1.24.9, 5-(6-(2-((2-chloro-6-(methylsulfonamido)pyridin-3-yl)oxy)acetyl)-2-methyl-5,6,7,8-tetrahydro-[1,3,4]thiadiazolo [2′,3′:2,3]imidazo[4,5-c]pyridin-5-yl)-4-fluoro-N,N-dimethylthiophene-2-carboxamide]
IC50 [6, 7]: 6 nM

Cc1nn2c3c(nc2s1)CCN(C(=O)COc1ccc(N2CCOCC2)nc1Cl)C3c1cnc(N2CCOCC2)s1 (stereo not drawn) [Example 1.7.2, 2-((2-chloro-6-morpholinopyridin-3-yl)oxy)-1-(2-methyl-5-(2-morpholinothiazol-5-yl)-7,8-dihydro-[1,3,4]thiadiazolo [2′,3′:2,3]imidazo[4,5-c]pyridin-6(5H)-yl)ethanone]
IC50 [6, 7]: 32 nM

Cc1nn2c3c(nc2s1)CCN(C(=O)COc1ccc(N2CCOCC2)nc1Cl)C3c1sc(-c2nnn[nH]2)cc1F (stereo not drawn) [Example 1.70.1, 2-((2-Chloro-6-morpholinopyridin-3-yl)oxy)-1-(5-(3-fluoro-5-(1H-tetrazol-5-yl)thiophen-2-yl)-2-methyl-7,8-dihydro-[1,3,4]thiadiazolo[2′,3′:2,3]imidazo-[4,5-c]pyridin-6(5H)-yl)ethanone]
IC50 ([6]; full length human TPH1, 40 μM L-tryptophan, 15° C., 60 minutes, fluorescence at 540 nm, mean if determined several times): 13 nM

Cc1nn2c3c(nc2s1)CCN(C(=O)COc1ccc(N2CCOCC2)cc1Cl)C3c1cnc(C2CC2)nc1 (stereo not drawn) [Example 1.10.2, 2-(2-chloro-4-morpholinophenoxy)-1-(5-(2-cyclopropyl-pyrimidin-5-yl)-2-methyl-7,8-dihydro-[1,3,4]thiadiazolo [2′,3′:2,3]imidazo[4,5-c]pyridin-6(5H)-yl)ethanone]
IC50 [6, 7]: 18 nM

O=C(COc1ccc(CN2CCOCC2)nc1Cl)N1CCc2nc3sccn3c2C1c1cnn(-c2ccccc2)c1 (stereo not drawn) [Example 6.13.6, 2-((2-chloro-6-(morpholinomethyl)pyridin-3-yl)oxy)-1-(5-(1-phenyl-1H-pyrazol-4-yl)-7,8-dihydrothiazolo-[2′,3′:2,3]imidazo[4,5-c]pyridin-6(5H)-yl)ethanone]
IC50 [6, 7]: 28 nM
